Numbering of substitutions follows the chain as printed. Several values for one entry are separate records, joined by “and”; a condition that tells them apart may be missing. Equal entries are not always repeated.
Columns and labels:
PfENT1 mutant D287A = target: T1, PfENT1 mutant D287A (Plasmodium falciparum, UniProt Q8IDM6, D287A); test: ITC binding to PfENT1 mutant D287A; conditions: Fig. 3c
T1 construct: 10xHis (N); made in house; host or cells: Sf9 insect cells (baculovirus)
T1 sequence (Q8IDM6 1-422 D287A): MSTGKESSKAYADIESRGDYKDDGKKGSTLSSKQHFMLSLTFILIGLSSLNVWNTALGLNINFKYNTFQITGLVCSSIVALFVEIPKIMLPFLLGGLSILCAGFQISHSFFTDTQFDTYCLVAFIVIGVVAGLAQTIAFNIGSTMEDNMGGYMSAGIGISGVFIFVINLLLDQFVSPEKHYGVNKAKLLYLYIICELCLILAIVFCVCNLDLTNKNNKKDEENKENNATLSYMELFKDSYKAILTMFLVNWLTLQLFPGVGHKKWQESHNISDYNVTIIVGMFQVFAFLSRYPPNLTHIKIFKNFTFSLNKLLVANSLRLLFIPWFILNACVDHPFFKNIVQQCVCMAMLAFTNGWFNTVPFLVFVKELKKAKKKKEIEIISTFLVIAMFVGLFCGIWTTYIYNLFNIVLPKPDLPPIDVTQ
Procedure: (§1) For the in vitro binding assay, Sf9 cells were solubilized in lysis buffer containing 2% (w/v) n-dodecyl-β-D-maltopyranoside (DDM, Anatrace) and protease inhibitor cocktail (0.8 μM aprotinin, 2 μM pepstatin, and 5 μg/ml leupeptin) at 4 °C for 2 h. The soluble supernatant was collected via centrifugation and incubated with Ni-NTA resin (QIAGEN) at 4 °C for 1 h. The resin was washed and eluted using lysis buffer containing 0.05% (w/v) DDM and 30 mM/300 mM imidazole. The protein was further purified by size-exclusion chromatography (Superdex 200 Increase 10/300; GE Healthcare) in buffer containing 25 mM MES (pH 6.0), 150 mM NaCl, and 0.05% (w/v) DDM. The peak fractions were pooled and concentrated to 10~50 μM for the nucleoside-binding assay.
(§2) The binding affinity between wild-type and mutant PfENT1 with nucleosides and GSK4 was measured using a Micro-Cal ITC200 (Malvern). All proteins were prepared in 25 mM MES (pH 6.0), 150 mM NaCl, and 0.05% (w/v) DDM. Nucleosides (5~10 mM) and GSK4 (100-200 μM) dissolved in the same buffer were titrated against 20–50 μM PfENT1 proteins at 25 °C. PEAQ-ITC analysis software (MicroCal) was employed to analyze the data. All titrations were repeated three times.

PfENT1 mutant R291A = target: T2, PfENT1 mutant R291A (Plasmodium falciparum, UniProt Q8IDM6, R291A); test: ITC binding to PfENT1 mutant R291A
T2 construct: 10xHis (N); made in house; host or cells: Sf9 insect cells (baculovirus)
T2 sequence (Q8IDM6 whole entry R291A): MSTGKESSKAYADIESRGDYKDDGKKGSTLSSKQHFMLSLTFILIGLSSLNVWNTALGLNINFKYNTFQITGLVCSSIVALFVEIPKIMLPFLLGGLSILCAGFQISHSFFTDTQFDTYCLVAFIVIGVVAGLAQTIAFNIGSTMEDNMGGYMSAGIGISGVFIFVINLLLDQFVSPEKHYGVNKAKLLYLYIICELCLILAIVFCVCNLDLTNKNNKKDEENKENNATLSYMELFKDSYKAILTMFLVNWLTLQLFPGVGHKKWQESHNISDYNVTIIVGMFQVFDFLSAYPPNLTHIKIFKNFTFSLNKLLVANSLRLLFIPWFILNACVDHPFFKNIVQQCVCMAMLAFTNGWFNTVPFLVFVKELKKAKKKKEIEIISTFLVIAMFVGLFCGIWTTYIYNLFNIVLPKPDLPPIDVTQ
Procedure: as §1, §2

PfENT1 mutant S49A = target: T3, PfENT1 mutant S49A (Plasmodium falciparum, UniProt Q8IDM6, S49A); test: ITC binding to PfENT1 mutant S49A; conditions: Fig. 3c
T3 construct: 10xHis (N); made in house; host or cells: Sf9 insect cells (baculovirus)
T3 sequence (Q8IDM6 1-422 S49A): T1 sequence (Q8IDM6 1-422 D287A) with S49A, A287D
Procedure: as §1, §2

OC[C@H]1O[C@@H](n2cnc3c(O)ncnc32)[C@H](O)[C@@H]1O [Inosine, inosine]
binding affinity (Kd) (PfENT1 mutant D287A): completely lost inosine binding
binding affinity (Kd) (PfENT1 mutant R291A; ITC, Fig. 3c, mutant R291A, mean ± SD (n = 3)): maintains inosine binding
Kd (PfENT1 mutant R291A; Kd, Mean and Mean ± SD, source data Figure 3c, construct R291A): 46.7 µM
Kd (PfENT1 mutant R291A; Kd, N=3 (individual experiments), source data Figure 3c, construct R291A): 53 µM and 56 µM and 31 µM
Kd (PfENT1 mutant R291A; binding affinity (Kd), ITC, Fig. 3c, mutant R291A, mean ± SD (n = 3)): 46.7 ± 13.6 µM
binding affinity (Kd) (PfENT1 mutant S49A): complete abolishment
